Data from patent publication US10844074B2, “Heterocycle compounds and uses thereof” (ZHEJIANG JIANFENG-YIEN BIOTECHNOLOGY CO., LTD., priority 2015, dated 2020).

Biological target: BTK (Homo sapiens, UniProt Q06187)
Test: BTK Enzyme Assay
Format: biochemical
Settings: 1 uM compound; read-out: BTK (% inh @ 1 uM)
Procedure: The following TABLE II lists compounds representative of the invention and their activity in BTK assays. In these assays, the following grading was used: A: >30% inhibition @1 μM; B: <30% inhibition @1 μM.

BTK, sequence (Q06187 whole entry): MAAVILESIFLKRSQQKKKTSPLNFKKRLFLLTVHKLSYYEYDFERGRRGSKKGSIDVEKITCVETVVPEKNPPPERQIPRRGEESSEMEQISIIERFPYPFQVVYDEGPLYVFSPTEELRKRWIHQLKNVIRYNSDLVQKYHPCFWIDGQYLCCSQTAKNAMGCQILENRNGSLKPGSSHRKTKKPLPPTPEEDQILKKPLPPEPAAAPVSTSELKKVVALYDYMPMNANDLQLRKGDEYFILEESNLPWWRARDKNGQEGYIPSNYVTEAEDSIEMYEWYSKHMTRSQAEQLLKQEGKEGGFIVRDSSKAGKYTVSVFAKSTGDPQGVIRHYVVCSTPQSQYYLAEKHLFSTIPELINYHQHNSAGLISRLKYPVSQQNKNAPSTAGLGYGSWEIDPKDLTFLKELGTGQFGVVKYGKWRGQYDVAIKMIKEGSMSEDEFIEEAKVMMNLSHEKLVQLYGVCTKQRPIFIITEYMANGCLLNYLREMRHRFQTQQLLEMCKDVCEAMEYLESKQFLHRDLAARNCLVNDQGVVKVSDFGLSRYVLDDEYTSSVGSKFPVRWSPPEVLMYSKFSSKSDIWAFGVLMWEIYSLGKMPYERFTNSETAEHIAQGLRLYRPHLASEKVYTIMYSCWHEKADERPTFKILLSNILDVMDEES

`C=CC(=O)Nc1cc(Nc2nc(-c3c[nH]c4ccccc34)c3sccc3n2)c(OC)cc1N1CCC(NC)CC1` [Compound 3, N-[5-[[4-(1H-indol-3-yl)thieno[3,2-d]pyrimidin-2-yl]amino]-4-methoxy-2-[4-(methylamino)-1-piperidyl]phenyl]prop-2-enamide] and `C=CC(=O)Nc1cc(Nc2nc(-c3c[nH]c4ccccc34)c3sccc3n2)c(OC)cc1N1CCN(C)CC1` [Compound 21, N-[5-[[4-(1H-indol-3-yl)thieno[3,2-d]pyrimidin-2-yl]amino]-4-methoxy-2-(4-methylpiperazin-1-yl)phenyl]prop-2-enamide] cannot be ordered by inhibition at 1 µM: > 30% for the first, > 30% for the second.

`C=CC(=O)Nc1cc(NC2=NC(c3cccc(N(C)C)c3)C3SC=CC3=N2)c(OC)cc1N(C)C` (stereo not drawn) [Compound 4, N-[2-(dimethylamino)-5-[[4-[3-(dimethylamino)phenyl]-4,4a-dihydrothieno[3,2-d]pyrimidin-2-yl]amino]-4-methoxy-phenyl]prop-2-enamide] and `C=CC(=O)Nc1cc(NC2=NC(c3cccc(N(C)C)c3)C3SC=CC3=N2)c(OC)cc1OCCN(C)C` (stereo not drawn) [Compound 12, N-[2-[2-(dimethylamino)ethoxy]-5-[[4-[3-(dimethylamino)phenyl]-4,4a-dihydrothieno[3,2-d]pyrimidin-2-yl]amino]-4-methoxy-phenyl]prop-2-enamide] cannot be ordered by inhibition at 1 µM: > 30% for the first, > 30% for the second.

Compared with `C=CC(=O)Nc1cc(NC2=NC(c3cccc(NC)c3)C3SC=CC3=N2)c(OC)cc1N1CCN(C)CC1` (stereo not drawn) [Compound 7, N-[4-methoxy-5-[[4-[3-(methylamino)phenyl]-4,4a-dihydrothieno[3,2-d]pyrimidin-2-yl]amino]-2-(4-methylpiperazin-1-yl)phenyl]prop-2-enamide], `C=CC(=O)Nc1cc(NC2=NC(c3cccc(N)c3)C3SC=CC3=N2)c(OC)cc1N1CCN(C)CC1` (stereo not drawn) [Compound 19, N-[5-[[4-(3-aminophenyl)-4,4a-dihydrothieno[3,2-d]pyrimidin-2-yl]amino]-4-methoxy-2-(4-methylpiperazin-1-yl)phenyl]prop-2-enamide] is lower in inhibition at 1 µM: > 30% for the first, < 30% for the second.

`C=CC(=O)Nc1cc(NC2=NC(c3cccc(N(C)C)c3)C3SC=CC3=N2)c(OC)cc1N(C)CCN1CCOCC1` (stereo not drawn) [Compound 8, N-[5-[[4-[3-(dimethylamino)phenyl]-4,4a-dihydrothieno[3,2-d]pyrimidin-2-yl]amino]-4-methoxy-2-[methyl(2-morpholinoethyl)amino]phenyl]prop-2-enamide] and `C=CC(=O)Nc1cc(NC2=NC(c3cccc(N(C)C)c3)C3SC=CC3=N2)c(OC)cc1N1CCC(C(=O)N(C)C)CC1` (stereo not drawn) [Compound 16, 1-[4-[[4-[3-(dimethylamino)phenyl]-4,4a-dihydrothieno[3,2-d]pyrimidin-2-yl]amino]-5-methoxy-2-(prop-2-enoylamino)phenyl]-N,N-dimethyl-piperidine-4-carboxamide] cannot be ordered by inhibition at 1 µM: > 30% for the first, > 30% for the second.

Going from `C=CC(=O)Nc1cc(NC2=NC(c3cccc(NC(C)(C)C)c3)C3SC=CC3=N2)c(OC)cc1N1CCOCC1` (stereo not drawn) [Compound 11, N-[5-[[4-[3-(tert-butylamino)phenyl]-4,4a-dihydrothieno[3,2-d]pyrimidin-2-yl]amino]-4-methoxy-2-morpholino-phenyl]prop-2-enamide] to `C=CC(=O)Nc1cc(NC2=NC(c3cccc(NC)c3)C3SC=CC3=N2)c(OC)cc1N1CCC(C(=O)N(C)C)CC1` (stereo not drawn) [Compound 17, 1-[5-methoxy-4-[[4-[3-(methylamino)phenyl]-4,4a-dihydrothieno[3,2-d]pyrimidin-2-yl]amino]-2-(prop-2-enoylamino)phenyl]-N,N-dimethyl-piperidine-4-carboxamide], the inhibition at 1 µM falls from > 30% to < 30%.

`C=CC(=O)Nc1cc(NC2=NC(c3cccc(NC)c3)C3SC=CC3=N2)c(OC)cc1OCCN(C)C` (stereo not drawn) [Compound 13, N-[2-[2-(dimethylamino)ethoxy]-4-methoxy-5-[[4-[3-(methylamino)phenyl]-4,4a-dihydrothieno[3,2-d]pyrimidin-2-yl]amino]phenyl]prop-2-enamide] and `C=CC(=O)Nc1cc(NC2=NC(c3cccc(NC)c3)C3SC=CC3=N2)c(OC)cc1OCCN1CCCCC1` (stereo not drawn) [Compound 15, N-[4-methoxy-5-[[4-[3-(methylamino)phenyl]-4,4a-dihydrothieno[3,2-d]pyrimidin-2-yl]amino]-2-[2-(1-piperidyl)ethoxy]phenyl]prop-2-enamide] cannot be ordered by inhibition at 1 µM: > 30% for the first, > 30% for the second.

`C=CC(=O)Nc1cc(NC2=NC(c3cccc(OC)c3)C3SC=CC3=N2)c(OC)cc1N1CCC(N(C)C)CC1` (stereo not drawn) [Compound 20, N-[2-[4-(dimethylamino)-1-piperidyl]-4-methoxy-5-[[4-(3-methoxyphenyl)-4,4a-dihydrothieno[3,2-d]pyrimidin-2-yl]amino]phenyl]prop-2-enamide] and `C=CC(=O)Nc1cc(NC2=NC(c3cccc(OC)c3)C3C(=N2)C=CN3C)c(OC)cc1N1CCC(N(C)C)CC1` (stereo not drawn) [Compound 28, N-[2-[4-(dimethylamino)-1-piperidyl]-4-methoxy-5-[[4-(3-methoxyphenyl)-5-methyl-4,4a-dihydropyrrolo[3,2-d]pyrimidin-2-yl]amino]phenyl]prop-2-enamide] cannot be ordered by inhibition at 1 µM: < 30% for the first, < 30% for the second.

Going from `C=CC(=O)Nc1cc(Nc2nc(-c3cn(C)c4ccccc34)c3sccc3n2)c(OC)cc1N1CCN(C)CC1` [Compound 22, N-[4-methoxy-5-[[4-(1-methylindol-3-yl)thieno[3,2-d]pyrimidin-2-yl]amino]-2-(4-methylpiperazin-1-yl)phenyl]prop-2-enamide] to `C=CC(=O)Nc1cc(Nc2nc(-c3ccccc3NC)c3sccc3n2)c(OC)cc1N1CCN(C)CC1` [Compound 29, N-[4-methoxy-5-[[4-[2-(methylamino)phenyl]thieno[3,2-d]pyrimidin-2-yl]amino]-2-(4-methylpiperazin-1-yl)phenyl]prop-2-enamide], the inhibition at 1 µM falls from > 30% to < 30%.

Compared with `C=CC(=O)Nc1cc(Nc2nc(-c3c[nH]c4ccccc34)c3sccc3n2)c(OC)cc1N1CCOCC1` [Compound 23, N-[5-[[4-(1H-indol-3-yl)thieno[3,2-d]pyrimidin-2-yl]amino]-4-methoxy-2-morpholino-phenyl]prop-2-enamide], `C=CC(=O)Nc1cc(Nc2nc(-c3ccc(NC)cc3)c3sccc3n2)c(OC)cc1N1CCN(C)CC1` [Compound 25, N-[4-methoxy-5-[[4-[4-(methylamino)phenyl]thieno[3,2-d]pyrimidin-2-yl]amino]-2-(4-methylpiperazin-1-yl)phenyl]prop-2-enamide] is lower in inhibition at 1 µM: > 30% for the first, < 30% for the second.

Going from `C=CC(=O)Nc1cc(Nc2nc(-c3ccc(NC(C)(C)C)cc3)c3sccc3n2)c(OC)cc1N1CCN(C)CC1` [Compound 27, N-[5-[[4-[4-(tert-butylamino)phenyl]thieno[3,2-d]pyrimidin-2-yl]amino]-4-methoxy-2-(4-methylpiperazin-1-yl)phenyl]prop-2-enamide] to `C=CC(=O)Nc1cc(Nc2nc(-c3ccccc3NC)c3sccc3n2)c(OC)cc1N(C)CCN(C)C` [Compound 31, N-[2-[2-(dimethylamino)ethyl-methyl-amino]-4-methoxy-5-[[4-[2-(methylamino)phenyl]thieno[3,2-d]pyrimidin-2-yl]amino]phenyl]prop-2-enamide], the inhibition at 1 µM falls from > 30% to < 30%.

For `C=CC(=O)Nc1cc(Nc2nc(-c3ccccc3)c3ccsc3n2)c(OC)cc1N(C)CCN(C)C` [Compound 32, N-[2-[2-(dimethylamino)ethyl-methyl-amino]-4-methoxy-5-[(4-phenylthieno[2,3-d]pyrimidin-2-yl)amino]phenyl]prop-2-enamide], the inhibition at 1 µM was > 30%.
